The text below walks through data of ChEMBL document CHEMBL1201862, “PubChem BioAssay data set” (2004).

Test systems include COLO 205; OVCAR-4; UACC-62; HCC 2998; A549; MCF7; OVCAR-5; CAKI-1; SR; LOX IMVI; MDA-MB-435; UACC-257; HCT-116; NCI/ADR-RES; SK-MEL-5; DU-145; SK-MEL-2; MOLT-4; RPMI-8226; OVCAR-8.
Holding throughout (experiment): NCI tumour cell line growth inhibition, 48 h

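Exposure lasted 48 hours, with cells grown in 96-well plates and compounds tested at five concentrations. Abbreviation: GI50, concentration required for 50% inhibition of growth.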 Activity calls are given as the source filed them. Rule as the data show it: active = GI50 up to about 1.1 µM and inactive = higher.

Turning to `O=C(NCCCNC(=O)c1ccc2c(O)c(O)ccc2c1)c1ccc2c(O)c(O)ccc2c1`, the GI50 in the assay with COLO 205 was 22.9 µM (inactive); with OVCAR-4, 57.5 µM (inactive); with UACC-62, 29.9 µM (inactive); in the assay on HCC 2998 it was > 60.4 µM (inactive); in the assay on A549, 32.3 µM (inactive); in the assay with MCF7, 10.5 µM (inactive). Besides, the GI50 in the assay with OVCAR-5 was 29.1 µM (inactive); with CAKI-1 it was > 63 µM (inactive); in the assay on SR it was 15.1 µM (inactive); in the assay with LOX IMVI, 9.57 µM (inactive); in the assay with MDA-MB-435, 15.1 µM (inactive); in the assay on UACC-257, 21.3 µM (inactive). Also, the GI50 in the assay on HCT-116 was 32.3 µM (inactive); with NCI/ADR-RES, 38.1 µM (inactive); in the assay on SK-MEL-5 it was 20.3 µM (inactive); in the assay on DU-145, 71.1 µM (inactive); in the assay on SK-MEL-2, 35.3 µM (inactive); with MOLT-4, 20.4 µM (inactive). For the same molecule, the GI50 with RPMI-8226 was 39.7 µM (inactive); in the assay with OVCAR-8 it was 35.6 µM (inactive).
Take `CCCCCCCCCCCCCC(=O)N(CCCCCCCCC)CC(O)C(O)C(OC1OC(CO)C(O)C(O)C1O)C(O)CO` (stereo not given): the GI50 in the assay on COLO 205 was 20.5 µM (inactive); in the assay with OVCAR-4, 24 µM (inactive); with UACC-62, 20.7 µM (inactive); in the assay with HCC 2998 it was 18.5 µM (inactive); in the assay with A549, 22.3 µM (inactive); in the assay on MCF7 it was 36.5 µM (inactive). Further, the GI50 was 32.9 µM (inactive) with OVCAR-5; 16.9 µM (inactive) with CAKI-1; 25.6 µM (inactive) with SR; 19.5 µM (inactive) with LOX IMVI; 19.8 µM (inactive) with MDA-MB-435; 17.1 µM (inactive) in the assay on UACC-257. Also, the GI50 in the assay with HCT-116 was 17.4 µM (inactive); in the assay with NCI/ADR-RES, 18.8 µM (inactive); with SK-MEL-5, 19.5 µM (inactive); in the assay with DU-145, 16.5 µM (inactive); in the assay with SK-MEL-2, 24.6 µM (inactive); with MOLT-4 it was 24.4 µM (inactive). The GI50 in the assay with RPMI-8226 is 29.9 µM (inactive); with OVCAR-8, 20.8 µM (inactive).
`COc1ccc(/N=C(/SS/C(=N/c2ccc(OC)cc2)c2ccc([N+](=O)[O-])o2)c2ccc([N+](=O)[O-])o2)cc1`: the GI50 was 1.92 µM (inactive) in the assay on COLO 205; 1.42 µM (inactive) in the assay with OVCAR-4; 1.28 µM (inactive) with UACC-62; 1.32 µM (inactive) in the assay on HCC 2998; 2.79 µM (inactive) in the assay with A549; 0.51 µM (active) in the assay with MCF7. In addition, the GI50 in the assay with OVCAR-5 was 2.2 µM (inactive); with CAKI-1 it was 1.92 µM (inactive); in the assay with SR, 0.547 µM (active); in the assay with LOX IMVI it was 1.78 µM (inactive); with MDA-MB-435, 1.59 µM (inactive); in the assay on UACC-257 it was 2.06 µM (inactive). Besides, the GI50 with HCT-116 was 1.18 µM (inactive); in the assay on NCI/ADR-RES it was 1.39 µM (inactive); with SK-MEL-5, 5.75 µM (inactive); with DU-145 it was 1.41 µM (inactive); in the assay with SK-MEL-2, 2.08 µM (inactive); in the assay with MOLT-4, 4.08 µM (inactive). The values for the GI50 in the assay on RPMI-8226 and in the assay on OVCAR-8 were 0.489 µM (active) and 1.37 µM (inactive), respectively.
Take `O=C1c2ccccc2-n2c1nc1ccc(Cl)cc1c2=O`: the GI50 is > 100 µM (inactive) in the assay on COLO 205; > 100 µM (inactive) in the assay on OVCAR-4; 16.3 µM (inactive) in the assay on UACC-62; > 100 µM (inactive) in the assay with HCC 2998; 26.1 µM (inactive) in the assay with A549; 83.9 µM (inactive) in the assay with MCF7. In addition, the GI50 in the assay with OVCAR-5 was > 100 µM (inactive); with CAKI-1 it was 33 µM (inactive); with SR it was 77.4 µM (inactive); in the assay on LOX IMVI, > 100 µM (inactive); in the assay with MDA-MB-435, 15.6 µM (inactive); in the assay with UACC-257, 42.1 µM (inactive). The GI50 in the assay on HCT-116 is 71.4 µM (inactive); in the assay with NCI/ADR-RES it was > 100 µM (inactive); in the assay on SK-MEL-5, > 100 µM (inactive); in the assay on DU-145, > 100 µM (inactive); with SK-MEL-2 it was 89.9 µM (inactive); in the assay with MOLT-4, 78.3 µM (inactive). The results for the GI50 in the assay on RPMI-8226 and in the assay on OVCAR-8 were 1.36 µM (inactive) and 35.2 µM (inactive), respectively.
`CCCC(=O)Nc1ccc2c(c1)CN1C(=O)c3ccccc3C1=N2`: the GI50 in the assay on COLO 205, with OVCAR-4, with UACC-62, in the assay with HCC 2998, in the assay on A549 and in the assay on MCF7 was > 100 µM (inactive) in each case. Besides, the GI50 in the assay with OVCAR-5, with CAKI-1, in the assay with SR, in the assay with LOX IMVI, with MDA-MB-435 and with UACC-257 was > 100 µM (inactive) each time. The GI50 in the assay with HCT-116, in the assay on NCI/ADR-RES, in the assay with SK-MEL-5, in the assay on DU-145, in the assay with SK-MEL-2 and in the assay on MOLT-4 was > 100 µM (inactive) each time. The GI50 in the assay with RPMI-8226 and in the assay with OVCAR-8 was > 100 µM (inactive) each time.
Take `CN1CCC/C1=C1/C(=O)N(c2ccccc2)N=C1c1ccc[nH]1`: the GI50 with COLO 205, in the assay with OVCAR-4, in the assay with UACC-62, in the assay with HCC 2998, with A549 and with MCF7 was > 100 µM (inactive) throughout. Besides, the GI50 with OVCAR-5, with CAKI-1, with SR, in the assay with LOX IMVI, in the assay with MDA-MB-435 and in the assay with UACC-257 was > 100 µM (inactive) in each case. The GI50 in the assay on HCT-116, in the assay with NCI/ADR-RES, with SK-MEL-5, in the assay with DU-145, in the assay on SK-MEL-2 and in the assay on MOLT-4 was > 100 µM (inactive) throughout. In addition, the GI50 with RPMI-8226 and in the assay on OVCAR-8 was > 100 µM (inactive) throughout.
With `Cc1cc2c3ccccc3[nH]c2c2ccnc(C)c12`, the GI50 in the assay with COLO 205 was 1.94 µM (inactive); with OVCAR-4, > 100 µM (inactive); with UACC-62, 7.36 µM (inactive); in the assay with HCC 2998, 2.87 µM (inactive); in the assay with A549, 8.28 µM (inactive); in the assay with MCF7 it was 27.9 µM (inactive). Besides, the GI50 was 7.36 µM (inactive) with OVCAR-5; 19 µM (inactive) in the assay on CAKI-1; 6.62 µM (inactive) in the assay on SR; 2.15 µM (inactive) in the assay with LOX IMVI; 1.65 µM (inactive) in the assay with MDA-MB-435; 18.2 µM (inactive) in the assay with UACC-257. Besides, the GI50 in the assay with HCT-116 is 2.21 µM (inactive); with NCI/ADR-RES, 14.7 µM (inactive); in the assay with SK-MEL-5, 4.78 µM (inactive); in the assay with DU-145, 6.47 µM (inactive); with SK-MEL-2 it was 8.63 µM (inactive); in the assay on MOLT-4, 7.16 µM (inactive). In addition, the GI50 is 3.21 µM (inactive) in the assay with RPMI-8226 and 8.69 µM (inactive) with OVCAR-8.
Regarding `Cc1csc2c1-n1cccc1C2=O`, the GI50 in the assay with COLO 205, with OVCAR-4, in the assay with UACC-62, in the assay on HCC 2998, in the assay on A549 and with MCF7 was > 100 µM (inactive) throughout. In addition, the GI50 with OVCAR-5 was > 100 µM (inactive); in the assay with CAKI-1 it was 65.8 µM (inactive); in the assay on SR, > 100 µM (inactive); in the assay on LOX IMVI, > 100 µM (inactive); with MDA-MB-435, 67.3 µM (inactive); in the assay on UACC-257, > 100 µM (inactive). The GI50 in the assay on HCT-116, in the assay on NCI/ADR-RES, in the assay with SK-MEL-5, in the assay on DU-145, in the assay with SK-MEL-2 and in the assay with MOLT-4 was > 100 µM (inactive) each time. Further, the GI50 in the assay on RPMI-8226 and with OVCAR-8 was > 100 µM (inactive) in each case.
With `Nc1nc(Cl)cc(Nc2ccc3c(c2)CCC3)n1`, the GI50 is 44.9 µM (inactive) in the assay on COLO 205; > 100 µM (inactive) in the assay on OVCAR-4; > 100 µM (inactive) in the assay with UACC-62; 65 µM (inactive) in the assay on HCC 2998; > 100 µM (inactive) with A549; > 100 µM (inactive) in the assay with MCF7. Also, the GI50 in the assay with OVCAR-5 was > 100 µM (inactive); with CAKI-1, 30.1 µM (inactive); with SR it was 17.4 µM (inactive); with LOX IMVI, 56.5 µM (inactive); in the assay with MDA-MB-435 it was > 100 µM (inactive); with UACC-257, > 100 µM (inactive). Further, the GI50 is 43.8 µM (inactive) in the assay on HCT-116; 28.6 µM (inactive) in the assay with NCI/ADR-RES; 91.4 µM (inactive) with SK-MEL-5; > 100 µM (inactive) in the assay on DU-145; > 100 µM (inactive) in the assay on SK-MEL-2; 2.45 µM (inactive) in the assay on MOLT-4. In addition, the GI50 is 19.7 µM (inactive) with RPMI-8226 and 80.9 µM (inactive) in the assay with OVCAR-8.
For `COc1cc(/C=C\c2ccc(C)cc2)cc(OC)c1OC`, the GI50 in the assay on COLO 205 was 0.0101 µM (active); in the assay with OVCAR-4, < 0.01 µM (active); in the assay with UACC-62, 0.00885 µM (active); with HCC 2998, 0.0191 µM (active); in the assay on A549 it was 0.0048 µM (active); in the assay on MCF7 it was 0.0415 µM (active). The GI50 in the assay on OVCAR-5 is 0.116 µM (active); with CAKI-1 it was < 0.01 µM (active); in the assay on SR it was 0.00841 µM (active); in the assay with LOX IMVI it was 0.00433 µM (active); with MDA-MB-435, 0.00264 µM (active); in the assay on UACC-257 it was 0.00904 µM (active). For the same molecule, the GI50 is 0.00106 µM (active) with HCT-116; 0.00767 µM (active) with NCI/ADR-RES; 0.00336 µM (active) with SK-MEL-5; 0.0234 µM (active) with DU-145; < 0.01 µM (active) with SK-MEL-2; 0.00697 µM (active) in the assay on MOLT-4. The GI50 was 0.00371 µM (active) in the assay on RPMI-8226 and 0.00822 µM (active) in the assay with OVCAR-8.
